According to US20260262643A1, “HERBICIDAL BENZOXAZINES” (FMC CORPORATION, priority 2022, published 2026):

Experiments:
kochia [1] = assay: Test C postemergence; assay type: in vivo, Bassia scoparia; conditions: 10 days, 0 to 100 scale (0 no effect, 100 complete control)
In short: (§1)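 Visual injury ratings on a 0–100 scale (100 = complete control) were made against untreated controls 10 days after treatment in the greenhouse. Compounds, formulated with surfactant in non-phytotoxic solvent, were sprayed on soil preemergence or onto one- to two-leaf plants 2–10 cm tall postemergence.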

blackgrass [2] = assay: Test C postemergence; assay type: in vivo, Alopecurus myosuroides; conditions: 10 days, 0 to 100 scale (0 no effect, 100 complete control)
In short: as §1

soybean [3] = assay: Test C postemergence; assay type: in vivo, Glycine max; conditions: 10 days, 0 to 100 scale (0 no effect, 100 complete control)
In short: as §1

pigweed, palmer [4] = assay: Test C preemergence; assay type: in vivo, Amaranthus palmeri
In short: as §1

corn [5] = assay: Test C postemergence; assay type: in vivo, Zea mays; conditions: 10 days, 0 to 100 scale (0 no effect, 100 complete control)
In short: as §1

ryegrass, Italian [6] = assay: Test C preemergence; assay type: in vivo, Lolium multiflorum
In short: as §1

galium = assay: Test C postemergence; assay type: in vivo, Galium aparine; conditions: 10 days, 0 to 100 scale (0 no effect, 100 complete control)
In short: as §1

corn [7] = assay: Test C preemergence; assay type: in vivo, Zea mays
In short: as §1

pigweed, palmer [8] = assay: Test C postemergence; assay type: in vivo, Amaranthus palmeri; conditions: 10 days, 0 to 100 scale (0 no effect, 100 complete control)
In short: as §1

barnyardgrass [9] = assay: Test C preemergence; assay type: in vivo, Echinochloa crusgalli
In short: as §1

ragweed [10] = assay: Test C postemergence; assay type: in vivo, Ambrosia artemisiifolia; conditions: 10 days, 0 to 100 scale (0 no effect, 100 complete control)
In short: as §1

rice = assay: Test D flooded paddy test; assay type: in vivo, Oryza sativa; conditions: 250 g ai/ha, applied to paddy water, visual rating after 13 to 14 days, scale 0 to 100 (0 no effect, 100 complete control)
In short: (§2)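 Visual ratings from 0, meaning no effect, to 100, meaning complete control, were assigned against untreated controls 13 to 14 days after compounds were added to the floodwater of pots kept 3 cm deep, with plants at the 2-leaf stage.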

oat, wild [11] = assay: Test C preemergence; assay type: in vivo, Avena fatua
In short: as §1

wheat [12] = assay: Test C preemergence; assay type: in vivo, Triticum aestivum
In short: as §1

wheat [13] = assay: Test C postemergence; assay type: in vivo, Triticum aestivum; conditions: 10 days, 0 to 100 scale (0 no effect, 100 complete control)
In short: as §1

ragweed [14] = assay: Test C preemergence; assay type: in vivo, Ambrosia artemisiifolia
In short: as §1

green foxtail [15] = assay: Test C preemergence; assay type: in vivo, Setaria viridis
In short: as §1

kochia [16] = assay: Test C preemergence; assay type: in vivo, Bassia scoparia
In short: as §1

green foxtail [17] = assay: Test C postemergence; assay type: in vivo, Setaria viridis; conditions: 10 days, 0 to 100 scale (0 no effect, 100 complete control)
In short: as §1

barnyardgrass [18] = assay: Test C postemergence; assay type: in vivo, Echinochloa crusgalli; conditions: 10 days, 0 to 100 scale (0 no effect, 100 complete control)
In short: as §1

sedge, umbrella = assay: Test D flooded paddy test; assay type: in vivo, Cyperus difformis; conditions: 250 g ai/ha, applied to paddy water, visual rating after 13 to 14 days, scale 0 to 100 (0 no effect, 100 complete control)
In short: as §2

barnyardgrass [19] = assay: Test D flooded paddy test; assay type: in vivo, Echinochloa crus-galli; conditions: 250 g ai/ha, applied to paddy water, visual rating after 13 to 14 days, scale 0 to 100 (0 no effect, 100 complete control)
In short: as §2

soybean [20] = assay: Test C preemergence; assay type: in vivo, Glycine max
In short: as §1

ryegrass, Italian [21] = assay: Test C postemergence; assay type: in vivo, Lolium multiflorum; conditions: 10 days, 0 to 100 scale (0 no effect, 100 complete control)
In short: as §1

blackgrass [22] = assay: Test C preemergence; assay type: in vivo, Alopecurus myosuroides
In short: as §1

oat, wild [23] = assay: Test C postemergence; assay type: in vivo, Avena fatua; conditions: 10 days, 0 to 100 scale (0 no effect, 100 complete control)
In short: as §1

ducksalad = assay: Test D flooded paddy test; assay type: in vivo, Heteranthera limosa; conditions: 250 g ai/ha, applied to paddy water, visual rating after 13 to 14 days, scale 0 to 100 (0 no effect, 100 complete control)
In short: as §2

horseweed = assay: Test C postemergence; assay type: in vivo, Erigeron canadensis; conditions: 10 days, 0 to 100 scale (0 no effect, 100 complete control)
In short: as §1

[24] = 500 g ai/ha, preemergence, 0 to 100 scale (0 no effect, 100 complete control)
[25] = Preemergence, 125 g ai/ha, 0 to 100 scale, 0 no effect, 100 complete control

Cc1ncn(-c2ccc(C)c(C(=O)N3CC(C(F)(F)F)Oc4c(Cl)cccc43)c2)n1 (stereo not shown) [Compound 349]
Plant response rating, Kochia (kochia [1]; 500 g ai/ha, postemergence): 90 | Plant response rating, Kochia (kochia [1]; Postemergence, 125 g ai/ha): 80 | Plant response rating, Blackgrass (blackgrass [2]; 500 g ai/ha, postemergence): 100 | Plant response rating, Blackgrass (blackgrass [2]; Postemergence, 125 g ai/ha): 90 | Plant response rating, Soybean (soybean [3]; 500 g ai/ha, postemergence): 100 | Plant response rating, Soybean (soybean [3]; Postemergence, 125 g ai/ha): 100 | Pigweed, Palmer plant response rating (pigweed, palmer [4]; [24]): 100 | Plant response rating, Pigweed, Palmer (pigweed, palmer [4]; [25]): 100 | Plant response rating, Corn (corn [5]; 500 g ai/ha, postemergence): 90 | Plant response rating, Corn (corn [5]; Postemergence, 125 g ai/ha): 80 | Ryegrass, Italian plant response rating (ryegrass, Italian [6]; [24]): 100 | Plant response rating, Ryegrass, Italian (ryegrass, Italian [6]; [25]): 100 | Plant response rating, Galium (galium; 500 g ai/ha, postemergence): 100 | Plant response rating, Galium (galium; Postemergence, 125 g ai/ha): 100 | Corn plant response rating (corn [7]; [24]): 60 | Plant response rating, Corn (corn [7]; [25]): 40 | Plant response rating, Pigweed, Palmer (pigweed, palmer [8]; 500 g ai/ha, postemergence): 90 | Plant response rating, Pigweed, Palmer (pigweed, palmer [8]; Postemergence, 125 g ai/ha): 50 | Barnyardgrass plant response rating (barnyardgrass [9]; [24]): 100 | Plant response rating, Barnyardgrass (barnyardgrass [9]; [25]): 70 | Plant response rating, Ragweed (ragweed [10]; 500 g ai/ha, postemergence): 40 | Plant response rating, Ragweed (ragweed [10]; Postemergence, 125 g ai/ha): 30 | Plant response rating, Rice (Flood) (rice): 0 | Oat, Wild plant response rating (oat, wild [11]; [24]): 90 | Plant response rating, Oat, Wild (oat, wild [11]; [25]): 20 | Wheat plant response rating (wheat [12]; [24]): 70 | Plant response rating, Wheat (wheat [12]; [25]): 20 | Plant response rating, Wheat (wheat [13]; 500 g ai/ha, postemergence): 80 | Plant response rating, Wheat (wheat [13]; Postemergence, 125 g ai/ha): 30 | Ragweed plant response rating (ragweed [14]; [24]): 80 | Plant response rating, Ragweed (ragweed [14]; [25]): 20 | Foxtail, Green plant response rating (green foxtail [15]; [24]): 100 | Plant response rating, Foxtail, Green (green foxtail [15]; [25]): 100 | Kochia plant response rating (kochia [16]; [24]): 90 | Plant response rating, Kochia (kochia [16]; [25]): 80 | Plant response rating, Foxtail, Green (green foxtail [17]; 500 g ai/ha, postemergence): 90 | Plant response rating, Foxtail, Green (green foxtail [17]; Postemergence, 125 g ai/ha): 70 | Plant response rating, Barnyardgrass (barnyardgrass [18]; 500 g ai/ha, postemergence): 90 | Plant response rating, Barnyardgrass (barnyardgrass [18]; Postemergence, 125 g ai/ha): 30 | Plant response rating, Sedge, Umbrella (Flood) (sedge, umbrella): 95 | Plant response rating, Barnyardgrass (Flood) (barnyardgrass [19]): 0 | Soybean plant response rating (soybean [20]; [24]): 100 | Plant response rating, Soybean (soybean [20]; [25]): 50 | Plant response rating, Ryegrass, Italian (ryegrass, Italian [21]; 500 g ai/ha, postemergence): 80 | Plant response rating, Ryegrass, Italian (ryegrass, Italian [21]; Postemergence, 125 g ai/ha): 50 | Blackgrass plant response rating (blackgrass [22]; [24]): 80 | Plant response rating, Blackgrass (blackgrass [22]; [25]): 50 | Plant response rating, Oat, Wild (oat, wild [23]; 500 g ai/ha, postemergence): 70 | Plant response rating, Oat, Wild (oat, wild [23]; Postemergence, 125 g ai/ha): 30 | Plant response rating, Ducksalad (Flood) (ducksalad): 0 | Plant response rating, Horseweed (horseweed; 500 g ai/ha, postemergence): 50 | Plant response rating, Horseweed (horseweed; Postemergence, 125 g ai/ha): 10
